The values below are quoted from earlier work in patent publication US9788539B2, “Platelet protection solution having beta-galactosidase and sialidase inhibitors” (Velico Medical, Inc., priority 2011, dated 2017).

The data set addresses viral, bacterial and mammalian sialidases. The conditions noted are these: cited from earlier work.

With `CC(=O)NC1C(O)C=C(C(=O)O)OC1C(O)C(O)CO` (stereo not shown) [DANA], the Ki entry is reported as “low μM range”.
